The record followed here is US12606585B2, “Fluorinated hexoses” (Stichting Radboud Universiteit, priority 2020, dated 2026).

Where two headings read alike, the source gives them in different places. Some results are limits rather than exact numbers.

Common to all, as to type: cell-based
For assay [1], the system named is Jurkat cells. The assay is described as follows: Lectin staining for fucose expression inhibition, Jurkat cells. As to conditions: 3 days, 0-512 μM compound, flow cytometry. The method, then: (§1) THP-1 cells (TIB-202, ATCC) and Jurkat cells (TIB-152, ATCC) were cultured in RPMI-1640 medium containing 2 mM Glutamine and 25 mM HEPES (Gibco™, Life Technologies), supplemented with 10% v/v heat-inactivated fetal bovine serum (FBS) (Gibco™, Life Technologies) and 1× antibiotic-antimycotic solution (100 units/mL of penicillin, 100 μg/mL of streptomycin, and 0.25 μg/mL Fungizone) (Gibco™, Life Technologies) and passaged every 3-4 day by seeding a fraction of 0.5-2 min cells of the culture per 10 ml medium. EL-4 cells (TIB-39, ATCC) were cultured in DMEM medium (Gibco™, Life Technologies), supplemented with 10% v/v heat-inactivated fetal bovine serum (FBS) (Gibco™, Life Technologies), 1× antibiotic-antimycotic solution (100 units/mL of penicillin, 100 μg/mL of streptomycin, and 0.25 μg/mL Fungizone) (Gibco™, Life Technologies) and 2 mM Glutamine (Gibco™, Life Technologies) and passaged every 2-4 days by seeding a fraction of 0.5-1 min cells of the culture per 10 ml medium. For passaging a T75 flask (Corning), medium was removed and the monolayer was washed with 10 ml PBS pH 7.2 without CaCl2) and MgCl2 (Gibco™, Life Technologies) before adding 3.5 ml 0.05% trypsin/EDTA solution (Gibco™ 5 Life Technologies) in PBS. Cells were incubated at rt for 30-45 s after which the trypsin/EDTA-solution was removed. Cells were incubated for an additional 2 min at 37° C., 5.0% CO2 and resuspended in cell culture medium. Cells were then seeded at ˜40.000 cells/cm^2 in new culture flasks. All cells were cultured at 37° C., 5% CO2 in a humidified incubator.
(§2) Protocol below was repeated until n>=3 for each compounds using cells at different passage numbers. Cells were cultured in medium containing different concentrations of unnatural sugar derivatives on either 24-wells plates (adherent cell lines; 80,000 cells per well) (Corning) or 96-wells plates (suspension cell lines; 13,000-20,000 cells per well) (Thermo Scientific). DMSO, at same dilution as the unnatural sugar derivative stock solutions, was used as a positive control for lectin staining; P-Fuc2F was used for all concentrations as negative control. Cells were incubated for three days at 37° C. and 5% CO2 in a humidified incubator. Cells were harvested and washed with 100 μl 1×CF-blocking buffer (Vector Laboratories Inc.) containing 1 mM CaCl2) and 1 mM MgCl2. The cells were then resuspended in 50 μl 0.5 μg/ml of 0.5 ng/ml biotinylated lectin in 1× carbo-free blocking buffer and incubated at 4-8° C. for 45-60 min. Cells were washed with 3×100 μl PBA (PBS containing 1% v/v FBS and 0.1% w/w sodium azide), incubated with 40 μl 1 μg/ml Streptavidin-phycoerythrin conjugate (Invitrogen, eBioscience) in PBA for 10-15 min at 4-8° C. Cells were then washed again with 3×100 μl PBA, resuspended in PBA and fluorescence was measured with a flow cytometer (Beckman & Dickinson FACS-Calibur). Each replicate for each condition with >10,000 gated events. Data was processed using FlowJo (FlowJo LLC). Percentage of lectin binding was obtained by normalizing the MFI values to the MFI values of the respective DMSO control.
(§3) Three cell lines (THP-1, Jurkat, EL4) were cultured for 3 days with 0-512 μM compound. The cells were stained with two fucose specific lectins (AAL & AOL) and analysed by flow cytometry, presented as mean percentage lectin binding normalized to control (n=3).

Assay [2] has as its system THP-1 cells. Kind of assay: Lectin staining for fucose expression inhibition, THP-1 cells. As to conditions: 3 days, 0-512 μM compound, flow cytometry. The method, then:
as §1, §2, §3

Assay [3] relates to EL4 cells. Kind of assay: Lectin staining for fucose expression inhibition, EL4 cells. As to conditions: 3 days, 0-512 μM compound, flow cytometry. The method, then: as §1, §2, §3
Assay [4] deals with THP-1 cells. The assay is described as follows: Onset and recovery of inhibition. As to conditions: for effect on lectin binding (FIG. 5): AAL or AOL lectin. The method, then: Cells were cultured in medium containing different concentrations of unnatural sugar derivatives on 96-wells plates (suspension cell lines; 13,000-20,000 cells per well) (Thermo Scientific). DMSO, at same dilution as the unnatural sugar derivative stock solutions, was used as a positive control for lectin staining; P-Fuc2F was used for all concentrations as negative control. Cells were incubated for eight days at 37° C. and 5% CO2 in a humidified incubator. Medium was changed after three and six days of incubation with cell culture medium without unnatural sugar derivatives. Every day cells were harvested and washed with 100 μl 1× CF-blocking buffer (Vector Laboratories Inc.) containing 1 mM CaCl2) and 1 mM MgCl2. The cells were then resuspended in 50 μl 0.5 μg/ml of either 0.5 ng/ml biotinylated AAL, AOL, SNA, MAL-II, WGA, LCA, PSA, PNA, PHA-L or GSL-1 lectin in 1× carbo-free blocking buffer or with 50 μl of non-supplemented 1× carbo-free blocking buffer and incubated at 4-8° C. for 45-60 min. Cells were washed with 3×100 μl PBA (PBS containing 1% v/v FBS and 0.1% w/w sodium azide), incubated with 40 μl 1 μg/ml Streptavidin-phycoerythrin conjugate (Invitrogen, eBioscience) in PBA for 10-15 min at 4-8° C. Cells were then washed again with 3×100 μl PBA, resuspended in PBA and fluorescence was measured with a flow cytometer (Beckman & Dickinson FACS-Calibur). Each replicate for each condition with >10,000 gated events. Data was processed using FlowJo (FlowJo LLC). Percentage of lectin binding was obtained by normalizing the MFI values to the MFI values of the respective DMSO control.
The onset of inhibition and duration for recovery was evaluated on THP-1 cells with 100 and 10 μM compound using the AAL lectin (FIG. 5). At 100 μM concentration compounds 9 and 10 inhibit fucosylation after 1 day and to over 50% after 3 days. Fucosylation was fully recovered to normal 5 levels on day 6. […] Similar results were obtained using the AOL lectin.

[5] abbreviates: Homo sapiens, 72 h, AAL lectin, n=3, read-out: EC50 for fucose expression inhibition, Jurkat AAL.
Setting [6] is: Homo sapiens, 72 h, AOL lectin, n=3, read-out: EC50 for fucose expression inhibition, Jurkat AOL.
[7] abbreviates: Homo sapiens, 72 h, AAL lectin, n=3, read-out: EC50 for fucose expression inhibition, THP-1 AAL.
The mark [8] stands for this setting: Homo sapiens, 72 h, AOL lectin, n=3, read-out: EC50 for fucose expression inhibition, THP-1 AOL.
Setting [9] is: Mus musculus, 72 h, AAL lectin, n=3, read-out: EC50 for fucose expression inhibition, EL4 AAL.
Where [10] appears, read: Mus musculus, 72 h, AOL lectin, n=3, read-out: EC50 for fucose expression inhibition, EL4 AOL.

For the molecule `CC(=O)OCC1O[C@H](OP(=O)(OCCSC(C)=O)OCCSC(C)=O)C(OC(C)=O)C(OC(C)=O)[C@@H]1OC(C)=O` (stereo partly drawn) [P-D-Man-1P (6), Di-(S-acetyl-2-thioethyl)-(2,3,4,6-tetra-O-acetyl-α-D-mannopyranoside) phosphate], the EC50 in assay [1] (setting [5]), in assay [1] (setting [6]), in assay [2] (setting [7]), in assay [2] (setting [8]), in assay [3] (setting [9]) and in assay [3] (setting [10]) was greater than 500 µM throughout. Besides, the “effect on lectin binding (FIG. 5)” value in assay [4] (100 μM) is given as “no effect”.

Take `CC(=O)OC1C(OC(C)=O)[C@H](OC(C)=O)C(CF)O[C@@H]1OP(=O)(OCCSC(C)=O)OCCSC(C)=O` (stereo partly drawn) [P-D-Rha6F-1P (8), Di-(S-acetyl-2-thioethyl)-(2,3,4-tri-O-acetyl-6-fluoro-α-D-rhamnopyranoside) phosphate]: the EC50 in assay [1] (setting [5]) is 174 µM; in assay [1] (setting [6]), 345 µM; in assay [2] (setting [7]), 267 µM; in assay [2] (setting [8]), 84.4 µM; in assay [3] (setting [9]), greater than 500 µM; in assay [3] (setting [10]) it was greater than 500 µM.

For `CC(=O)OC1C(OC(C)=O)[C@H](OC(C)=O)C(C)O[C@@H]1OP(=O)(OCCSC(C)=O)OCCSC(C)=O` (stereo partly drawn) [P-D-Rha-1P (7), Di-(S-acetyl-2-thioethyl)-(2,3,4-tri-O-acetyl-α-D-rhamnopyranoside) phosphate], the concentration for a half-maximal effect (EC50) in assay [1] (setting [5]) was greater than 500 µM; in assay [1] (setting [6]), 153 µM; in assay [2] (setting [7]), greater than 500 µM; in assay [2] (setting [8]), 137 µM; in assay [3] (setting [9]), greater than 500 µM; in assay [3] (setting [10]), greater than 500 µM.

`CC(=O)OC1O[C@@H](C)[C@@H](OC(C)=O)[C@@H](OC(C)=O)[C@@H]1F` (stereo partly drawn) [P-Fuc2Feq, reference compound]: the concentration giving a half-maximal response (EC50) was 115 µM in assay [1] (AAL lectin, n=3, read-out: EC50 for fucose expression inhibition, Jurkat AAL); 121 µM in assay [1] (AOL lectin, n=3, read-out: EC50 for fucose expression inhibition, Jurkat AOL); 44.9 µM in assay [2] (AAL lectin, n=3, read-out: EC50 for fucose expression inhibition, THP-1 AAL); 30.7 µM in assay [2] (AOL lectin, n=3, read-out: EC50 for fucose expression inhibition, THP-1 AOL); greater than 500 µM in assay [3] (AAL lectin, n=3, read-out: EC50 for fucose expression inhibition, EL4 AAL); greater than 500 µM in assay [3] (AOL lectin, n=3, read-out: EC50 for fucose expression inhibition, EL4 AOL). Also, the “inhibition of fucosylation at 10 μM” value in assay [4] (10 μM, AAL lectin) is on record as “no inhibition”. Besides, the “effect on lectin binding (FIG. 5)” value in assay [4] (10 μM) is on record as “no longer discernible”.
